Test results published in PMC11580889 (bioRxiv, 2025).

Target: PNKP (polynucleotide kinase 3'-phosphatase); purified recombinant PNKP (Homo sapiens, UniProt Q96T60)
Assay: intrinsic tryptophan fluorescence quenching titration
Format: binding

## O=P(O)(O)OC[C@H]1O[C@@](CO)(OP(=O)(O)O)[C@@H](O)[C@@H]1O [F2,6BP]
  Kd: 525 ± 25 nM
